Measured values from patent US20020052343A1, “Salicylamides as serine protease inhibitors” (priority 1999, published 2002).

Key:
[1] = target: T1, human Urokinase (Homo sapiens, UniProt P00749); assay: Urokinase (uPA) inhibition, chromogenic substrate hydrolysis, Ki app.; type: biochemical
T1 construct: purchased American Diagnostica, Conn., USA
Description: (§1) The effectiveness of compounds of the present invention as inhibitors of Urokinase and Factor Xa is determined by using synthetic substrates and purified Urokinase and purified human Factor Xa respectively.
The rates of hydrolysis by the chromogenic substrates were measured both in the absence and presence of compounds of the present invention. […] The results of this assay are expressed as the inhibitory constant, Ki app. Factor Xa determinations were made in 50 mM Tris buffer, pH 7.5, containing 1 M NaCl, 5 mM CaCl2, 0.05% Tween-20, and 1.5 mM EDTA. […] Initial velocity measurements calculated from the progress curves by a kinetic analysis program (Batch Ki; Peter Kuzmic, BioKin, Ltd., Madison, Wis.) were used to determine Ki app.
Urokinase inhibition determinations were made in 50 mM Tris (pH 7.5), 150 mM NaCl, 0.05% Tween-20, 0.002% antifoam, and 1 mM EDTA. human Urokinase (from American Diagnostica, Conn., USA). […] Initial velocity measurements calculated from the progress curves by a kinetic analysis program (Batch Ki; Peter Kuzmic, BioKin, Ltd., Madison, Wis.) were used to determine Ki app.

[2] = target: T2, human Factor Xa (Homo sapiens, UniProt P00742); assay: Factor Xa inhibition, chromogenic substrate hydrolysis, Ki app.; type: biochemical; conditions: 2-3 nM human Factor Xa, substrate 1 mM, 50 mM Tris pH 7.5, absorbance at 405 nm, read-out: FXa Ki
T2 construct: purchased Haematologic Technologies, Vt., USA
Description: as §1, with “Some of the compounds of the present invention show selectivity between uPA and FXa, with respect to their inhibitory properties. The” for “The”
The rates of hydrolysis by the chromogenic substrates were measured both in the absence and presence of compounds of the present invention. Hydrolysis of the substrates result in the release of a chromogenic moiety, which is monitored spectrophotometrically by measuring the increase in absorbance at 405 nano meter (nm). A decrease in the rate of absorbance change at 405 nm in the presence of a inhibitor is indicative of enzyme inhibition. The results of this assay are expressed as the inhibitory constant, Ki app. Factor Xa determinations were made in 50 mM Tris buffer, pH 7.5, containing 1 M NaCl, 5 mM CaCl2, 0.05% Tween-20, and 1.5 mM EDTA. Values of Ki app. were determined by allowing 2-3 nM human Factor Xa (Haematologic Technologies, Vt., USA) to react with the substrate (1 mM) in the presence of an inhibitor. Hydrolysis of the chromogenic substrate is followed spectrophotometrically at 405 nm for five minutes. The enzyme assay routinely yielded linear progression curves under these conditions. Initial velocity measurements calculated from the progress curves by a kinetic analysis program (Batch Ki; Peter Kuzmic, BioKin, Ltd., Madison, Wis.) were used to determine Ki app.

T2 sequence (P00742 235-488 limits assumed): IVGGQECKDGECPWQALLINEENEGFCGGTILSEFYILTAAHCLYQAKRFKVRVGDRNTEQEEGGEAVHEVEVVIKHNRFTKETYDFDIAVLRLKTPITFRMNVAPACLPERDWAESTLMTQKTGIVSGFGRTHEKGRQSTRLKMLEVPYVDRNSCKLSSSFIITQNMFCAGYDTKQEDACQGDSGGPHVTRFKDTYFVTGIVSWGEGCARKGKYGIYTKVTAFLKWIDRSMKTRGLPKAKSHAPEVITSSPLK
T2 sequence (P00742 41-179 partner limits assumed): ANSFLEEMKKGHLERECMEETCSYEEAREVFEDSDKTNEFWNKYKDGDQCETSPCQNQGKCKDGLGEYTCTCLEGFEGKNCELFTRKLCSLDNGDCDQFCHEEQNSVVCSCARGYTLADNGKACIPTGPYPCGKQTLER

Compound	Ki [2] [nM]	Ki [1] [nM]
N=C(N)Nc1ccc(NC(=O)c2cc3ccccc3cc2O)cn1 [Ex. 201, 3-hydroxy-naphthalene-2-carboxylic acid (6-guanidino-pyridin-3-yl)-amide]	130000	326
Cc1cc(Br)c(O)c(C(=O)Nc2ccc(C(=N)N)cc2)c1 [Ex. 5]	840	290

Further lines, with some results ahead:

Ki [2] [nM]	Compound	Ki [1] [nM]
880	Cc1cc(I)c(O)c(C(=O)Nc2ccc(C(=N)N)cc2)c1 [Ex. 1, N-(4—Carbamimidoyl-phenyl)-2-hydroxy-3-iodo-5-methyl-benzamide]	
34000	CC(C)c1cc(C(=O)Nc2ccc(C(=N)N)cc2)c(O)c(C(C)C)c1 [compound 24]	2900
290000	Cc1cc(I)c(O)c(C(=O)Nc2ccc(NC(=N)N)nc2)c1 [Ex. 205]	5500
